Measurements from ChEMBL document CHEMBL4732090, “Preparation of new 1,3-dibenzyl tetrahydropyridinylidene ammonium salts and their antimicrobial and anticellular activities” (Eur J Med Chem, 2021).

System: Plasmodium falciparum
Test: Antiplasmodial activity against Plasmodium falciparum NF54 erythrocytic stages assessed as reduction in [3H]hypoxanthine incorporation measured after 48 hrs by liquid scintillation counting method
Type: functional, organism-based
Conditions: not given

SMILES	IC50 [nM]
CC1(C)C(Cc2c(Cl)cccc2Cl)C(=[N+]2CCCC2)C=CN1Cc1ccc(Cl)cc1 (racemic)	3.6
CC(C)(C)c1ccc(CC2C(=[N+]3CCCC3)C=CN(Cc3ccccc3)C2(C)C)cc1 (racemic)	30
CC1(C)C(Cc2ccc(C(F)(F)F)cc2)C(=[N+]2CCCC2)C=CN1Cc1ccccc1 (racemic)	26
CC1(C)C(Cc2ccccc2)C(=[N+]2CCCC2)C=CN1Cc1ccc(Cl)cc1 (racemic)	30
CC1(C)C(Cc2c(Cl)cccc2Cl)C(=[N+]2CCCC2)C=CN1Cc1c(Cl)cccc1Cl (racemic)	38
CC1(C)C(Cc2ccc(Cl)cc2)C(=[N+]2CCCC2)C=CN1Cc1ccc(Cl)cc1 (racemic)	1.4
CC1(C)C(Cc2ccccc2)C(=[N+]2CCCC2)C=CN1Cc1ccc([N+](=O)[O-])cc1 (racemic)	89

System: Plasmodium falciparum
Test: Antiplasmodial activity against chloroquine and pyrimethamine resistant Plasmodium falciparum K1 strain
Type: functional, organism-based
Conditions: not given

SMILES	IC50 [nM]
CC1(C)C(Cc2c(Cl)cccc2Cl)C(=[N+]2CCCC2)C=CN1Cc1ccc(Cl)cc1 (racemic)	6
CC1(C)C(Cc2ccc(Cl)cc2)C(=[N+]2CCCC2)C=CN1Cc1ccc(Cl)cc1 (racemic)	1.6
C[C@@H]1CC[C@H]2[C@@H](C)C(=O)O[C@@H]3O[C@@]4(C)CC[C@@H]1[C@]32OO4 [ARTEMISININ]	3.4

System: not listed separately
Test: Selectivity index, ratio of IC50 for rat L6 cells to IC50 for Plasmodium falciparum NF54
Type: toxicity
Conditions: read-out: Ratio IC50

SMILES	selectivity ratio
CC1(C)C(Cc2c(Cl)cccc2Cl)C(=[N+]2CCCC2)C=CN1Cc1ccc(Cl)cc1 (racemic)	1260
CC(C)(C)c1ccc(CC2C(=[N+]3CCCC3)C=CN(Cc3ccccc3)C2(C)C)cc1 (racemic)	31.3
CC1(C)C(Cc2ccc(C(F)(F)F)cc2)C(=[N+]2CCCC2)C=CN1Cc1ccccc1 (racemic)	3300
CC1(C)C(Cc2ccccc2)C(=[N+]2CCCC2)C=CN1Cc1ccc(Cl)cc1 (racemic)	1260
CC1(C)C(Cc2c(Cl)cccc2Cl)C(=[N+]2CCCC2)C=CN1Cc1c(Cl)cccc1Cl (racemic)	23.9
CC1(C)C(Cc2ccc(Cl)cc2)C(=[N+]2CCCC2)C=CN1Cc1ccc(Cl)cc1 (racemic)	8980
CC1(C)C(Cc2ccccc2)C(=[N+]2CCCC2)C=CN1Cc1ccc([N+](=O)[O-])cc1 (racemic)	2320

System: not listed separately
Test: Selectivity index, ratio of IC50 for rat L6 cells to IC50 for chloroquine and pyrimethamine resistant Plasmodium falciparum K1
Type: toxicity
Conditions: read-out: Ratio IC50

SMILES	selectivity ratio
CC1(C)C(Cc2c(Cl)cccc2Cl)C(=[N+]2CCCC2)C=CN1Cc1ccc(Cl)cc1 (racemic)	755
CC1(C)C(Cc2ccc(Cl)cc2)C(=[N+]2CCCC2)C=CN1Cc1ccc(Cl)cc1 (racemic)	7860
C[C@@H]1CC[C@H]2[C@@H](C)C(=O)O[C@@H]3O[C@@]4(C)CC[C@@H]1[C@]32OO4 [ARTEMISININ]	132000

System: Trypanosoma brucei rhodesiense
Test: Trypanocidal activity against Trypanosoma brucei rhodesiense STIB900 incubated for 70 hrs by Alamar blue assay
Type: functional, organism-based
Conditions: STIB900, 70 h

SMILES	IC50 [nM]
CC1(C)C(Cc2c(Cl)cccc2Cl)C(=[N+]2CCCC2)C=CN1Cc1ccc(Cl)cc1 (racemic)	52
CC(C)(C)c1ccc(CC2C(=[N+]3CCCC3)C=CN(Cc3ccccc3)C2(C)C)cc1 (racemic)	20
CC1(C)C(Cc2ccc(C(F)(F)F)cc2)C(=[N+]2CCCC2)C=CN1Cc1ccccc1 (racemic)	320
CC1(C)C(Cc2ccccc2)C(=[N+]2CCCC2)C=CN1Cc1ccc(Cl)cc1 (racemic)	120
CC1(C)C(Cc2c(Cl)cccc2Cl)C(=[N+]2CCCC2)C=CN1Cc1c(Cl)cccc1Cl (racemic)	24
CC1(C)C(Cc2ccc(Cl)cc2)C(=[N+]2CCCC2)C=CN1Cc1ccc(Cl)cc1 (racemic)	170
CC1(C)C(Cc2ccccc2)C(=[N+]2CCCC2)C=CN1Cc1ccc([N+](=O)[O-])cc1 (racemic)	1030

System: not listed separately
Test: Selectivity index, ratio of IC50 for rat L6 cells to IC50 for Trypanosoma brucei rhodesiense STIB900
Type: toxicity
Conditions: read-out: Ratio IC50

SMILES	selectivity ratio
CC1(C)C(Cc2c(Cl)cccc2Cl)C(=[N+]2CCCC2)C=CN1Cc1ccc(Cl)cc1 (racemic)	87.1
CC(C)(C)c1ccc(CC2C(=[N+]3CCCC3)C=CN(Cc3ccccc3)C2(C)C)cc1 (racemic)	47
CC1(C)C(Cc2ccc(C(F)(F)F)cc2)C(=[N+]2CCCC2)C=CN1Cc1ccccc1 (racemic)	268
CC1(C)C(Cc2ccccc2)C(=[N+]2CCCC2)C=CN1Cc1ccc(Cl)cc1 (racemic)	316
CC1(C)C(Cc2c(Cl)cccc2Cl)C(=[N+]2CCCC2)C=CN1Cc1c(Cl)cccc1Cl (racemic)	37.9
CC1(C)C(Cc2ccc(Cl)cc2)C(=[N+]2CCCC2)C=CN1Cc1ccc(Cl)cc1 (racemic)	73.9
CC1(C)C(Cc2ccccc2)C(=[N+]2CCCC2)C=CN1Cc1ccc([N+](=O)[O-])cc1 (racemic)	200

System: L6
Test: Cytotoxicity against rat L6 cells after 70 hrs by Alamar blue assay
Type: cell-based
Conditions: L6, 70 h, read-out: IC50

SMILES	IC50 [nM]
CC1(C)C(Cc2c(Cl)cccc2Cl)C(=[N+]2CCCC2)C=CN1Cc1ccc(Cl)cc1 (racemic)	4530
CC(C)(C)c1ccc(CC2C(=[N+]3CCCC3)C=CN(Cc3ccccc3)C2(C)C)cc1 (racemic)	940
CC1(C)C(Cc2ccc(C(F)(F)F)cc2)C(=[N+]2CCCC2)C=CN1Cc1ccccc1 (racemic)	85900
CC1(C)C(Cc2ccccc2)C(=[N+]2CCCC2)C=CN1Cc1ccc(Cl)cc1 (racemic)	37900
CC1(C)C(Cc2c(Cl)cccc2Cl)C(=[N+]2CCCC2)C=CN1Cc1c(Cl)cccc1Cl (racemic)	910
CC1(C)C(Cc2ccc(Cl)cc2)C(=[N+]2CCCC2)C=CN1Cc1ccc(Cl)cc1 (racemic)	12600
CC1(C)C(Cc2ccccc2)C(=[N+]2CCCC2)C=CN1Cc1ccc([N+](=O)[O-])cc1 (racemic)	206000

System: HCT-116
Test: Cytotoxicity against human HCT-116 cells assessed as inhibition of cell growth at 50 uM after 72 hrs by XTT assay relative to control
Type: functional
Conditions: not given

SMILES	inhibition at 50 µM [%]
CC1(C)C(Cc2c(Cl)cccc2Cl)C(=[N+]2CCCC2)C=CN1Cc1ccc(Cl)cc1 (racemic)	100
CC(C)(C)c1ccc(CC2C(=[N+]3CCCC3)C=CN(Cc3ccccc3)C2(C)C)cc1 (racemic)	100
CC1(C)C(Cc2c(Cl)cccc2Cl)C(=[N+]2CCCC2)C=CN1Cc1c(Cl)cccc1Cl (racemic)	100
CC1(C)C(Cc2ccc(Cl)cc2)C(=[N+]2CCCC2)C=CN1Cc1ccc(Cl)cc1 (racemic)	100

System: U-251
Test: Cytotoxicity against human U-251 cells assessed as inhibition of cell growth at 50 uM after 72 hrs by XTT assay relative to control
Type: functional
Conditions: not given

SMILES	inhibition at 50 µM [%]
CC1(C)C(Cc2c(Cl)cccc2Cl)C(=[N+]2CCCC2)C=CN1Cc1ccc(Cl)cc1 (racemic)	100
CC(C)(C)c1ccc(CC2C(=[N+]3CCCC3)C=CN(Cc3ccccc3)C2(C)C)cc1 (racemic)	100
CC1(C)C(Cc2c(Cl)cccc2Cl)C(=[N+]2CCCC2)C=CN1Cc1c(Cl)cccc1Cl (racemic)	100
CC1(C)C(Cc2ccc(Cl)cc2)C(=[N+]2CCCC2)C=CN1Cc1ccc(Cl)cc1 (racemic)	100

System: Staphylococcus aureus
Test: Antibacterial activity against Staphylococcus aureus ATCC 29213 assessed as diameter of inhibition zone at 10 mg/ml by disk diffusion assay
Type: functional
Conditions: read-out: DIZ

SMILES	zone of inhibition at 10000 µg/mL [mm]
CC1(C)C(Cc2c(Cl)cccc2Cl)C(=[N+]2CCCC2)C=CN1Cc1ccc(Cl)cc1 (racemic)	21
CC(C)(C)c1ccc(CC2C(=[N+]3CCCC3)C=CN(Cc3ccccc3)C2(C)C)cc1 (racemic)	22
CC1(C)C(Cc2ccc(C(F)(F)F)cc2)C(=[N+]2CCCC2)C=CN1Cc1ccccc1 (racemic)	22
CC1(C)C(Cc2ccccc2)C(=[N+]2CCCC2)C=CN1Cc1ccc(Cl)cc1 (racemic)	22
CC1(C)C(Cc2c(Cl)cccc2Cl)C(=[N+]2CCCC2)C=CN1Cc1c(Cl)cccc1Cl (racemic)	23
CC1(C)C(Cc2ccc(Cl)cc2)C(=[N+]2CCCC2)C=CN1Cc1ccc(Cl)cc1 (racemic)	21
CC1(C)C(Cc2ccccc2)C(=[N+]2CCCC2)C=CN1Cc1ccc([N+](=O)[O-])cc1 (racemic)	12

System: Staphylococcus epidermidis
Test: Antibacterial activity against Staphylococcus epidermis ATCC 12228 assessed as diameter of inhibition zone at 10 mg/ml by disk diffusion assay
Type: functional
Conditions: read-out: DIZ

SMILES	zone of inhibition at 10000 µg/mL [mm]
CC1(C)C(Cc2c(Cl)cccc2Cl)C(=[N+]2CCCC2)C=CN1Cc1ccc(Cl)cc1 (racemic)	33
CC(C)(C)c1ccc(CC2C(=[N+]3CCCC3)C=CN(Cc3ccccc3)C2(C)C)cc1 (racemic)	24
CC1(C)C(Cc2ccc(C(F)(F)F)cc2)C(=[N+]2CCCC2)C=CN1Cc1ccccc1 (racemic)	24
CC1(C)C(Cc2ccccc2)C(=[N+]2CCCC2)C=CN1Cc1ccc(Cl)cc1 (racemic)	29
CC1(C)C(Cc2c(Cl)cccc2Cl)C(=[N+]2CCCC2)C=CN1Cc1c(Cl)cccc1Cl (racemic)	34
CC1(C)C(Cc2ccc(Cl)cc2)C(=[N+]2CCCC2)C=CN1Cc1ccc(Cl)cc1 (racemic)	34
CC1(C)C(Cc2ccccc2)C(=[N+]2CCCC2)C=CN1Cc1ccc([N+](=O)[O-])cc1 (racemic)	14

System: Escherichia coli
Test: Antibacterial activity against Escherichia coli ATCC 25922 assessed as diameter of inhibition zone at 10 mg/ml by disk diffusion assay
Type: functional
Conditions: read-out: DIZ

SMILES	zone of inhibition at 10000 µg/mL [mm]
CC1(C)C(Cc2c(Cl)cccc2Cl)C(=[N+]2CCCC2)C=CN1Cc1ccc(Cl)cc1 (racemic)	15
CC(C)(C)c1ccc(CC2C(=[N+]3CCCC3)C=CN(Cc3ccccc3)C2(C)C)cc1 (racemic)	15
CC1(C)C(Cc2ccc(C(F)(F)F)cc2)C(=[N+]2CCCC2)C=CN1Cc1ccccc1 (racemic)	11
CC1(C)C(Cc2ccccc2)C(=[N+]2CCCC2)C=CN1Cc1ccc(Cl)cc1 (racemic)	13
CC1(C)C(Cc2c(Cl)cccc2Cl)C(=[N+]2CCCC2)C=CN1Cc1c(Cl)cccc1Cl (racemic)	14
CC1(C)C(Cc2ccc(Cl)cc2)C(=[N+]2CCCC2)C=CN1Cc1ccc(Cl)cc1 (racemic)	15
CC1(C)C(Cc2ccccc2)C(=[N+]2CCCC2)C=CN1Cc1ccc([N+](=O)[O-])cc1 (racemic)	7

System: Pseudomonas aeruginosa
Test: Antibacterial activity against Pseudomonas aeruginosa ATCC 27853 assessed as diameter of inhibition zone at 10 mg/ml by disk diffusion assay
Type: functional
Conditions: read-out: DIZ

SMILES	zone of inhibition at 10000 µg/mL [mm]
CC1(C)C(Cc2c(Cl)cccc2Cl)C(=[N+]2CCCC2)C=CN1Cc1ccc(Cl)cc1 (racemic)	12
CC(C)(C)c1ccc(CC2C(=[N+]3CCCC3)C=CN(Cc3ccccc3)C2(C)C)cc1 (racemic)	0
CC1(C)C(Cc2ccc(C(F)(F)F)cc2)C(=[N+]2CCCC2)C=CN1Cc1ccccc1 (racemic)	0
CC1(C)C(Cc2ccccc2)C(=[N+]2CCCC2)C=CN1Cc1ccc(Cl)cc1 (racemic)	0
CC1(C)C(Cc2c(Cl)cccc2Cl)C(=[N+]2CCCC2)C=CN1Cc1c(Cl)cccc1Cl (racemic)	6
CC1(C)C(Cc2ccc(Cl)cc2)C(=[N+]2CCCC2)C=CN1Cc1ccc(Cl)cc1 (racemic)	7
CC1(C)C(Cc2ccccc2)C(=[N+]2CCCC2)C=CN1Cc1ccc([N+](=O)[O-])cc1 (racemic)	0

System: Candida albicans
Test: Antifungal activity against Candida albicans ATCC 90028 assessed as diameter of inhibition zone at 10 mg/ml by disk diffusion assay
Type: functional
Conditions: read-out: DIZ

SMILES	zone of inhibition at 10000 µg/mL [mm]
CC1(C)C(Cc2c(Cl)cccc2Cl)C(=[N+]2CCCC2)C=CN1Cc1ccc(Cl)cc1 (racemic)	20
CC(C)(C)c1ccc(CC2C(=[N+]3CCCC3)C=CN(Cc3ccccc3)C2(C)C)cc1 (racemic)	22
CC1(C)C(Cc2ccc(C(F)(F)F)cc2)C(=[N+]2CCCC2)C=CN1Cc1ccccc1 (racemic)	15
CC1(C)C(Cc2ccccc2)C(=[N+]2CCCC2)C=CN1Cc1ccc(Cl)cc1 (racemic)	20
CC1(C)C(Cc2c(Cl)cccc2Cl)C(=[N+]2CCCC2)C=CN1Cc1c(Cl)cccc1Cl (racemic)	25
CC1(C)C(Cc2ccc(Cl)cc2)C(=[N+]2CCCC2)C=CN1Cc1ccc(Cl)cc1 (racemic)	20
CC1(C)C(Cc2ccccc2)C(=[N+]2CCCC2)C=CN1Cc1ccc([N+](=O)[O-])cc1 (racemic)	0
